Laboratory results taken from US20240366624A1, “METHODS AND COMPOSITIONS FOR TREATING THROMBOTIC DISEASE” (Washington University, priority 2023, published 2024).

What was measured:
[1] = biological target: T1, MAO-A (monoamine oxidase A) (Homo sapiens, UniProt P21397); experiment: MAO-A activity assay; assay type: biochemical
T1 sequence (P21397 1-527): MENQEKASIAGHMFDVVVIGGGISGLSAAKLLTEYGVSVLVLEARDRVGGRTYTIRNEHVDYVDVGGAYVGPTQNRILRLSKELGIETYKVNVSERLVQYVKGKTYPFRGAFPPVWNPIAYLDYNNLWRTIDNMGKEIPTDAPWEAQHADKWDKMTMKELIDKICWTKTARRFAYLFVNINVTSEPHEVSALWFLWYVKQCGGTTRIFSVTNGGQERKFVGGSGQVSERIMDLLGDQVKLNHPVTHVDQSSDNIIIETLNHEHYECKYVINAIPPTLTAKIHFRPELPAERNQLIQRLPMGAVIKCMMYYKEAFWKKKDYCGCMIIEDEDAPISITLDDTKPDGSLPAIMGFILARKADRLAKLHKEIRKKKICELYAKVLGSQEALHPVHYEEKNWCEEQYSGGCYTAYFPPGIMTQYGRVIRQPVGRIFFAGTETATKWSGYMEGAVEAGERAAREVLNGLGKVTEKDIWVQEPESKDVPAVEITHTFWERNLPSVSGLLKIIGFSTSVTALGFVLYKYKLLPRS

[2] = system: mouse platelets; experiment: Flow cytometry of P-selectin exposure and αIIbβ3 integrin activation, mouse platelets; assay type: cell-based; details: agonist-activated mouse platelets, concentration-dependent
Protocol: FIG. 10(A-E) is an exemplary embodiment of 15E9 not affecting platelet activation and aggregation in accordance with the present disclosure. Mouse platelets were treated with 0.02-0.03 (FIG. 10A P-selectin, FIG. 10B aIIbβ3) or 0.025 U/ml thrombin (FIG. 10C) in the presence of 10 μg/ml mouse IgG2a (IgG2a) or a blocking anti-ERO1α antibody (15E9). Flow cytometry (FIG. 10(A-B)) and aggregation (FIG. 10C) assays were performed. FIG. 10D: Human platelets were treated with 0.025 U/ml thrombin in the presence of mouse IgG2a (mIgG2a) or 10 μg/ml 15E9 and 16B6, followed by measuring aggregation. […] P values determined by unpaired Student's t-test (vs. mIgG1).
FIG. 18(A-R) is an exemplary embodiment of novel small-molecule inhibitors recapitulating the defect in Ero1α (endoplasmic reticulum oxidoreductase 1a)-null platelets in accordance with the present disclosure. […] After incubation with a different concentration of B12-5, the specific interaction between B12-5 and ERO1α was measured by subtracting the nonspecific binding. The KD value was calculated from the Kon and Koff values. […] P values determined by ANOVA and Dunnett test (FIG. 18(B-E), FIG. 18(1-L), and FIG. 18(O-R) [for B12-5]) or Student t test (FIG. 18M, FIG. 18N, and FIG. 18(O-R) [for BAPTA (1,2-bis(o-aminophenoxy)ethane-N,N,N′,N′-tetraacetic acid)]). […]

[3] = H2O2 (antioxidant) activity assay; assay type: biochemical
Description: (§1) FIG. 17(A-F) is an exemplary embodiment of identification of novel ERO1α inhibitors by high throughput screening in accordance with the present disclosure. FIG. 17A: A scheme of an ERO1α activity assay. FIG. 17B: Screening of chemical libraries in the ERO1α activity assay. FIG. 17C: The inhibitory effect of selected compounds on ERO1α activity. FIG. 17D: The inhibitory effect of selected compounds on PDI activity. FIG. 17E: The inhibitory effect of selected compounds on H2O2 activity. FIG. 17F: The inhibitory effect of selected compounds on thiol-reacting activity. The data represent the mean±SD (n=3). *P<0.05, **P<0.01, ***P<0.001, and ****P<0.0001 vs. vehicle control, Student's t-test.
(§2) To identify a novel ERO1α inhibitor, 5800 compounds were screened using an ERO1α activity assay (FIG. 17A and FIG. 17B). […] The selected compounds were further tested in assays measuring PDI, antioxidant, and thiol-reacting activities (FIG. 17D through FIG. 17F). […] B12 inhibited P-selectin exposure and αIIbβ3 activation in agonist-activated mouse and human platelets in a concentration-dependent manner (FIG. 18B through FIG. 18E).

[4] = system: human platelets; experiment: Flow cytometry of P-selectin exposure and αIIbβ3 integrin activation, human platelets; assay type: cell-based; details: agonist-activated human platelets, concentration-dependent
Description: FIG. 18(A-R) is an exemplary embodiment of novel small-molecule inhibitors recapitulating the defect in Ero1α (endoplasmic reticulum oxidoreductase 1a)-null platelets in accordance with the present disclosure. FIG. 18A: The structure of B12 and its inhibitory effect on ERO1α activity. FIG. 18(B-E): The inhibitory effect of B12 on P-selectin exposure and αIIbβ3 integrin activation in (FIG. 18B and FIG. 18C) mouse and (FIG. 18D and FIG. 18E) human platelets. FIG. 18F: The structure of B12-5 and its inhibitory effect on ERO1α activity. FIG. 18G: A docking model of B12-5-ERO1α (3AHQ) and flavin adenine dinucleotide (FAD)-ERO1α complex. There are pi-sulfur interactions of the phenothiazine head group (B112-5) or a tricyclic ring (FAD) with Met389 and Cys397. Also, there are H bond interactions between the tail/alkyl group and His255, Asn259, and Arg287. […] After incubation with a different concentration of B12-5, the specific interaction between B12-5 and ERO1α was measured by subtracting the nonspecific binding. The KD value was calculated from the Kon and Koff values. […] P values determined by ANOVA and Dunnett test (FIG. 18(B-E), FIG. 18(1-L), and FIG. 18(O-R) [for B12-5]) or Student t test (FIG. 18M, FIG. 18N, and FIG. 18(O-R) [for BAPTA (1,2-bis(o-aminophenoxy)ethane-N,N,N′,N′-tetraacetic acid)]). […]

[5] = biological target: T2, ERO1α (Homo sapiens, UniProt Q96HE7); experiment: ERO1α activity assay; assay type: biochemical
T2 sequence (Q96HE7 24-468): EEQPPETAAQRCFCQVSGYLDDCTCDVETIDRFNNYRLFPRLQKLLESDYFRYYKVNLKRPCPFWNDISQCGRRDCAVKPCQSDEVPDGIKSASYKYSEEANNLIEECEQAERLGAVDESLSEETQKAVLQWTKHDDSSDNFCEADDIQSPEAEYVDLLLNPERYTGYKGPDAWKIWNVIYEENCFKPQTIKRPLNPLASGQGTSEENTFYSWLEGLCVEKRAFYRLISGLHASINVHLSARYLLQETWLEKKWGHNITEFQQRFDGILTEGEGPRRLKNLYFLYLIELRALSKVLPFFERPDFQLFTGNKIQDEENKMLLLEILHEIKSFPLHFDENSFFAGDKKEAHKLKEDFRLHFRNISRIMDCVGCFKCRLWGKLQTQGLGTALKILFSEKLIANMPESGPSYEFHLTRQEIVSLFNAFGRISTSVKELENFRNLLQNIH
Description: as §1, §2

[6] = biological target: PDI (Homo sapiens, UniProt P07237); experiment: PDI activity assay; assay type: biochemical
Description: as §1, §2

[7] = thiol-reacting (GSH) activity assay; assay type: biochemical
Description: as §1, §2

Sequence of PDI (P07237 18-508, species assumed): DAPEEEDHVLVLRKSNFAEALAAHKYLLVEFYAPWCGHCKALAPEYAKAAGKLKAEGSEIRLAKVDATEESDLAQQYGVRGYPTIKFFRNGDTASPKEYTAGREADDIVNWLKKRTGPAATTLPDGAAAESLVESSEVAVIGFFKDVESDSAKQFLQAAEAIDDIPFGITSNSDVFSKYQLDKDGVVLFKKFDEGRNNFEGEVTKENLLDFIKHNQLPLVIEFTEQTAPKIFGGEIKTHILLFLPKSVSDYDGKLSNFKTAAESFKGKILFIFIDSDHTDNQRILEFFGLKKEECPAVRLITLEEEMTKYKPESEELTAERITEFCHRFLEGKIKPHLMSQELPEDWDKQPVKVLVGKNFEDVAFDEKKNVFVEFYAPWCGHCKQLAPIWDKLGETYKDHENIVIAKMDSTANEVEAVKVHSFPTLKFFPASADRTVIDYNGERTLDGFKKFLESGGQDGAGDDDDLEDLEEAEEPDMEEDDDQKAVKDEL

inhibition at 100 µM [1]: 25.3 ± 5% | inhibition at 20 µM [5]: 72.9 ± 12% | IC50 ([5]; read-out: IC50, ERO1α activity): 12.4 µM | inhibition at 100 µM [6]: 4.8 ± 1% | effect on PDI activity ([6]; at or up to 100 μM): without affecting
SMILES: O=C(CSc1nc(O)c2nc[nH]c2n1)N1c2ccccc2Sc2ccccc21 [B12]
P-selectin exposure and αIIbβ3 activation [2]: inhibited | H2O2 inhibition at 100 μM (%) ([3]; 100 μM): 4.7 ± 1% | effect on H2O2 (antioxidant) activity ([3]; at or up to 100 μM): without affecting | P-selectin exposure and αIIbβ3 activation [4]: inhibited | GSH inhibition at 100 μM (%) ([7]; 100 μM): 5.1 ± 2% | effect on thiol-reacting activity ([7]; at or up to 100 μM): without affecting
